In US8642341B2, “Materials and methods for gene mediated therapy of psychiatric disorders” (Cornell University, priority 2007, dated 2014):

Key:
[1] = tested on: mice; assay: mouse tail suspension test (TST); type: in vivo; details: mice injected with control vector or no virus
From the text: (§1) Two mouse groups (n=10) received bilateral nucleus accumbens injections of AAV-p11-siRNA or control vector. The mouse groups are referenced herein as the “knockdown group” or “control” respectively. Behavioral testing began 6 weeks later, when expression from AAV vectors usually peaks. Behavioral testing included mouse tail suspension test (TST), open filed test, and forced swim test (FST).
(§2) Knockdown and control groups of mice were transfected with AAV-p11-siRNA or control AAV vector, as described in Example 1. An additional control group was not transfected with any virus. The mice were subsequently treated with the antidepressant imipramine.
(§3) The AAV plasmid shown in FIGS. 2 and 3 was used to generate a virus vector, which expresses the p11 gene product and which has the same AAV2 backbone described in Example 1. The resulting virus vector (“AAV-p11,” which is SEQ ID NO: 3) was injected into the nucleus accumbens of normal adult mice.
(§4) Three groups of p11 knockdown mice (as in Example 1) were transfected with no virus, control virus vector, and the AAV-p11 virus vector of Example 3, respectively. Each knockdown transfectant group was compared to a wild-type counterpart group, which was also transfected with no virus, control virus vector, or AAV-p11. All virus transfections involved bilateral injection to the nucleus accumbens.

[2] = tested on: mice; assay: forced swim test (FST); type: in vivo, mouse; details: mice injected with control vector or no virus
From the text: as §1, §2, §3, §4

**Q.** What does the source list for `CN(C)CCCN1c2ccccc2CCc2ccccc21` [imipramine]?
**A.** immobility on the TST after imipramine [1]: decreased immobility; immobility on the FST after imipramine [2]: decreased immobility
